This passage reports Activity and inhibition results from ChEMBL document CHEMBL3751685, “Borrelidin Induces the Unfolded Protein Response in Oral Cancer Cells and Chop-Dependent Apoptosis” (ACS Med Chem Lett, 2015).

SMILES strings stand for the structures. Active and inactive are the calls of the source. The rule behind the calls is not given here.

The target in data set [1] is T1, Threonine--tRNA ligase 1, cytoplasmic (Homo sapiens) (UniProt P26639).
T1 sequence (whole entry): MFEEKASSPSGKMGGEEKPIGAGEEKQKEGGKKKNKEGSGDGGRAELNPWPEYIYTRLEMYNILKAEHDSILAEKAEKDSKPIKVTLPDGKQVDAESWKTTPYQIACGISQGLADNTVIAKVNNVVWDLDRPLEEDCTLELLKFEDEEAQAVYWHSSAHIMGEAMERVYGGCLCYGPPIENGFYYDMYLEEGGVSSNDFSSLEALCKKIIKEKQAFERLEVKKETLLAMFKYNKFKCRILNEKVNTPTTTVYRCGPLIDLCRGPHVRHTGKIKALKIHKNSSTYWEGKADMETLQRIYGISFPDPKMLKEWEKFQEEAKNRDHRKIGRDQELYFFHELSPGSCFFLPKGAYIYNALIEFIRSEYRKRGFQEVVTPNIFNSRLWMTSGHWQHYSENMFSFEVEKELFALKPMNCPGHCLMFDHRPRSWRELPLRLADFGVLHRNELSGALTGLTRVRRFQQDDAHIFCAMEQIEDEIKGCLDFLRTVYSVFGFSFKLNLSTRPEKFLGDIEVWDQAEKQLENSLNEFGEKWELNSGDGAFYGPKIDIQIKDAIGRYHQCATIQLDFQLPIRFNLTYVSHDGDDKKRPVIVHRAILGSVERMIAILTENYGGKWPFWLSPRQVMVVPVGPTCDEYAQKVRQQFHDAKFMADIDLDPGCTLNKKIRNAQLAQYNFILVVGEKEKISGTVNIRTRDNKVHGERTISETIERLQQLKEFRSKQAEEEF
As to the kind of experiment: Inhibition of ThRS in human UMSCC1 cells assessed as increase in apoptosis-related gene expression at 10 uM by RT-PCR analysis. The format is cell-based.

Data set [2] concerns the target T1, Threonine--tRNA ligase 1, cytoplasmic (Homo sapiens). Kind of data set: Inhibition of ThRS in human UMSCC1 cells assessed as increase in ATF4 mRNA level at 5 uM after 6 hrs by RT-qPCR analysis. The format is cell-based.
For data set [3] the target is unchanged. Kind of data set: Inhibition of ThRS in human UMSCC1 cells assessed as increase in CHOP mRNA level at 5 uM after 6 hrs by RT-qPCR analysis. Format: cell-based. (Real-time PCR tracks product formation cycle by cycle.)
Data set [4] relates to UMSCC1. As to the kind of experiment: Effect on Bip/GRP78 mRNA level in human UMSCC1 cells at 5 uM after 6 hrs by RT-qPCR analysis. The format is functional, cell-based.
Data set [5] addresses T1, Threonine--tRNA ligase 1, cytoplasmic (Homo sapiens). As to the kind of experiment: Inhibition of ThRS in human UMSCC1 cells assessed as increase in ATF3 mRNA level at 5 uM after 6 hrs by RT-qPCR analysis. The format is cell-based.
For data set [6], the system named is UMSCC1. As to the kind of experiment: Inhibition of cell proliferation in human UMSCC1 cells for 24 hrs by Celltiter Glo assay. The format is functional, cell-based.
Data set [7] is described as follows: Cytotoxicity against HEK cells after 24 hrs by CelltiterGlo assay. The conditions noted are these: human, hek293, 24 h. The format is cell-based. In general terms: ATP-based viability assays read luminescence as a measure of living cells.
In data set [8] the target is T1, Threonine--tRNA ligase 1, cytoplasmic (Homo sapiens). Kind of data set: Inhibition of ThRS in human UMSCC1 cells assessed as increase in UPR-related gene expression at 10 uM by RT-PCR analysis. Format: cell-based.
The target is the same in data set [9]. As to the kind of experiment: Inhibition of ThRS in human UMSCC1 cells assessed as increase in DNA damaging-related gene expression at 10 uM by RT-PCR analysis. Format: cell-based.
For data set [10] the target is unchanged. Kind of data set: Inhibition of ThRS in human UMSCC1 cells assessed as increase in XBP1 splicing by RT-PCR analysis. The format is cell-based.
The test system of another data set is UMSCC23. Kind of data set: Inhibition of cell proliferation in human UMSCC23 cells for 24 hrs by Celltiter Glo assay. Format: functional, cell-based.
The test system of a further data set is UMSCC14A. Kind of data set: Inhibition of cell proliferation in human UMSCC14A cells for 24 hrs by Celltiter Glo assay. The format is functional, cell-based.
Data set [11] has as its target T2, Threonine--tRNA ligase 1, cytoplasmic (Mus musculus) (UniProt Q9D0R2).
T2 sequence (whole entry): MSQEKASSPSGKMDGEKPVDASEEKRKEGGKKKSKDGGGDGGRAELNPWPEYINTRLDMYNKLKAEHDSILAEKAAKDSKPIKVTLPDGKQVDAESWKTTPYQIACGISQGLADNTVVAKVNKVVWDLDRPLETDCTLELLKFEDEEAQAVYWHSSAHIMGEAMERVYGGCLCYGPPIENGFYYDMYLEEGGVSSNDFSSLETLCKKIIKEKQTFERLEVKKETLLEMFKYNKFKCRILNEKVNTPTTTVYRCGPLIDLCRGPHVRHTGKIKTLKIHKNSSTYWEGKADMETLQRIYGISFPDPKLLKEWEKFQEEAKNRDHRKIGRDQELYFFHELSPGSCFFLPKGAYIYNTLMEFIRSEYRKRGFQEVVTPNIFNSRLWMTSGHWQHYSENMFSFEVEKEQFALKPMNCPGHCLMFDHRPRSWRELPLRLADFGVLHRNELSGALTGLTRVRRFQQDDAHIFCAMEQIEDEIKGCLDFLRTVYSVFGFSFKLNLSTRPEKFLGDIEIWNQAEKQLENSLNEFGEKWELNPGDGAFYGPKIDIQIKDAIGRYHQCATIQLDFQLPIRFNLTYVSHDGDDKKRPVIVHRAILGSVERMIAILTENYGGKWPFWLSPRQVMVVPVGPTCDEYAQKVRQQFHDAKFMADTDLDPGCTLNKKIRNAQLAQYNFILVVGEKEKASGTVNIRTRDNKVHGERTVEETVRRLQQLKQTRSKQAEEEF
The conditions noted are these: MEF, 5 uM.
Description: Inhibition of ThRs in mouse MEF cells expressing Gcn2 (-/-) assessed as effect on Puma mRNA level at 5 uM by RT-PCR analysis

For data set [12], the target named is T2, Threonine--tRNA ligase 1, cytoplasmic (Mus musculus). The conditions noted are these: MEF, 5 uM. The source holds these as a separate data set.
Description: Inhibition of ThRs in mouse MEF cells expressing Gcn2 (-/-) assessed as effect on Chop level at 5 uM by immunoblot analysis
Data set [13] shares this target. The conditions noted are these: MEF, 5 uM. This is another data set of the same source.
Description: Inhibition of ThRs in mouse MEF cells expressing Gcn2 (-/-) assessed as effect on Noxa mRNA level at 5 uM by RT-PCR analysis
For data set [14], the system named is MEF. Kind of data set: Inhibition of cell proliferation in mouse MEF cells expressing Hri(-/-) after 16 hrs CelltiterGlo assay. The format is functional, cell-based.
In data set [15] the test system is MEF. Kind of data set: Inhibition of cell proliferation in mouse MEF cells expressing Chop(-/-) after 16 hrs Celltiter Glo assay. Format: functional, cell-based.
For data set [16], the system named is MEF. As to the kind of experiment: Inhibition of cell proliferation in mouse MEF cells expressing eIF2alpha Ser51Ala mutant after 16 hrs Celltiter Glo assay. Format: functional, cell-based.
The test system of data set [17] is MEF. Kind of data set: Inhibition of cell proliferation in mouse MEF cells expressing Pkr(-/-) after 16 hrs CelltiterGlo assay. The format is functional, cell-based.
In data set [18] the target is T2, Threonine--tRNA ligase 1, cytoplasmic (Mus musculus). The conditions noted are these: MEF, 5 uM. This is another data set of the same source.
Description: Inhibition of ThRs in mouse MEF cells expressing Perk (-/-) assessed as effect on Chop level at 5 uM by immunoblot analysis
Data set [19] deals with MEF. Kind of data set: Inhibition of cell proliferation in mouse MEF cells expressing Atf4(-/-) after 16 hrs CelltiterGlo assay. The format is functional, cell-based.
Data set [20] concerns the target T2, Threonine--tRNA ligase 1, cytoplasmic (Mus musculus). The conditions noted are these: MEF, 5 uM. This is another data set of the same source.
Description: Inhibition of ThRs in mouse MEF cells expressing Gcn2 (-/-) assessed as effect on Dr5 mRNA level at 5 uM by RT-PCR analysis
Data set [21] has the same target. The conditions noted are these: MEF, 5 uM. This is another data set of the same source.
Description: Inhibition of ThRs in mouse MEF cells expressing Gcn2 (-/-) assessed as effect on Gadd45beta mRNA level at 5 uM by RT-PCR analysis
Data set [22] has the same target. Particulars: MEF, 5 uM. This is another data set of the same source.
Description: Inhibition of ThRs in mouse MEF cells expressing Gcn2 (-/-) assessed as effect on phosphorylated eIF2alpha level at 5 uM by immunoblot analysis
Data set [23] has the same target. The conditions noted are these: MEF, 5 uM. This is another data set of the same source.
Description: Inhibition of ThRs in mouse MEF cells expressing Gcn2 (-/-) assessed as effect on Trb3 mRNA level at 5 uM by RT-PCR analysis
Data set [24] shares this target. The conditions noted are these: MEF, 5 uM. The source holds these as a separate data set.
Description: Inhibition of ThRs in mouse MEF cells expressing Perk (-/-) assessed as effect on phosphorylated eIF2alpha level at 5 uM by immunoblot analysis
Another data set deals with A549. As to the kind of experiment: Inhibition of cell proliferation in human A549 cells expressing BAX/BAK (-/-) after 24 hrs by CelltiterGlo assay. Format: functional, cell-based.

For the compound `C[C@@H]1C[C@H](C)C[C@H](C)[C@@H](O)CC(=O)O[C@H]([C@@H]2CCC[C@H]2C(N)=O)C/C=C/C=C(/C#N)[C@H](O)[C@@H](C)C1`, the outcome (in [1]; in the data set on UMSCC1 [4]; in data set [8]; in data set [9]) was inactive. Also, the result in data set [2], in data set [3], in data set [5] and in data set [10] was Active. Besides, the inhibition entry in the data set on UMSCC1 [6], with UMSCC23 and with UMSCC14A was “Active” each time. Moreover, in data set [7], the Activity result is reported as “Toxic”.
As to `C[C@@H]1C[C@H](C)C[C@H](C)[C@@H](O)CC(=O)O[C@H]([C@@H]2CCC[C@H]2C(=O)O)C/C=C/C=C(/C#N)[C@H](O)[C@@H](C)C1` [BORRELIDIN], the inhibition entry (in data set [11]; in [12]; in data set [13]; in the data set on MEF [14]; with MEF [15]; in the data set with MEF [17]) was “inactive” throughout. For the same compound, the inhibition result (in [18]; in the data set with MEF [19]; in data set [20]; in [21]; in [22]; in [23]) was “inactive” throughout. Moreover, the inhibition result (in data set [24]; with A549) was “inactive” throughout. Moreover, the result in data set [1], in [2], in data set [3], in [5], in [8] and in data set [9] was Active. The result in data set [10] was Active. In addition, the inhibition entry in the data set on MEF [16], with UMSCC1 [6], in the data set on UMSCC23 and with UMSCC14A was “Active” throughout. The outcome in the data set on UMSCC1 [4] was inactive. Moreover, in [7], the Activity result is reported as “Toxic”.
For `CC(=O)NC/C1=C/C=C/C[C@@H]([C@@H]2CCC[C@H]2C(N)=O)OC(=O)C[C@H](O)[C@@H](C)C[C@@H](C)C[C@@H](C)C[C@H](C)[C@H]1O`, the outcome in data set [1], in data set [2], in [3], in data set [5], in data set [8] and in data set [9] was inactive. The outcome in data set [10] was inactive. In addition, the inhibition entry in the data set with UMSCC1 [6], in the data set on UMSCC23 and with UMSCC14A was “inactive” each time. In addition, in data set [7], the Activity result is “Toxic”.
